Key:
Jurkat-D3B cells = experiment: SDF-1α induced migration of Jurkat-D3B cells expressing sstr2; type: cell-based, human
Protocol: Methods: Total mRNA was prepared from Panc-1 cells (a human pancreas cell line which is well known to express high levels of sstr2) using the RNAqueous 4PCR kit (Ambion, Cat code #1914) in accordance with the manufacturer's instructions. The mRNA was then reverse transcribed (using the RETROscript kit; Ambio) to yield a cDNA preparation. A full length cDNA of the sstr2 gene was then obtained by PCR (using a Peltier PTC-200 thermal cycler using the following cycle times and conditions: 94°C for 2 min, followed by 30 cycles of 94°C, for 30 sec, 55°C for 30sec, 72°C for 1 min and finally 72°C for 10 min), and isolated by preparative gel electrophoresis. The sequence of the sstr2 cDNA was confirmed by sequencing. The sstr2 cDNA was treated with EcoRI and Xhol to generate sticky ends, which allowed directional cloning into the polylinker of the plasmid pcDNA3.1+ (Invitrogen) followed by ligation (10µl ligation reactions were run with 400 T4 DNA ligase (New England Biolabs) and the maximal amounts of DNA with an insert:plasmid ratio of 3:1 in ligase buffer incubated overnight at 13°C). The resulting vector (see Fig. 13) was used to transform XL-10 Ultracompetent cells (Stratagene) using standard techniques. Plasmid DNA was prepared using a MiniPrep kit (Wizard Plus SV Minipreps DNA purification System; Promega) in accordance with the manufacturer's instructions for transfection into Jurkat T cells.
Jurkat T cells were grown in RPMI + 10% foetal calf serum (FCS), and subcultured by 1:3 dilution in fresh medium every 4 days. Jurkat T cells in logarithmic growth phase 48 hours after subculture were washed by centrifugation and resuspended in serum-free RPMI medium at 7.5 x 10^5 cells per ml. A mixture of DNA and transfection reagent (2µg of DNA; 3µl Fugene 6 transfection reagent; Roche) was then added and the cells were incubated at 37°C for 48 hours. The cells were then washed three times by centrifugation in RPMI + 10% FCS, before being suspended in fresh medium at 1 x 10^5 cells per ml. 68 ml of the resulting cell suspension was then plated out in a total of 226 wells in 96-well plates (Corning). After 48hrs, G418 (0.9mg/ml Active G418) was added to the medium to select for transfectants, and the cells were expanded by repeated subculture, keeping the populations from individual wells (which were considered clonal or oligoclonal expansions) separate. […]
A number of individual cell lines were obtained in this way, which expressed significant levels of sstr2 on the cell surface, detected by flow cytometry using the human-sstr2 antibody (Sigma, S0694; see Example 3 for details of the flow cytometry protocol used). […]

sstr2 = sstr2 (Homo sapiens, UniProt P30874); experiment: [3H]-BN83250 equilibrium binding to THP-1 cells
sstr2, sequence (P30874 whole entry): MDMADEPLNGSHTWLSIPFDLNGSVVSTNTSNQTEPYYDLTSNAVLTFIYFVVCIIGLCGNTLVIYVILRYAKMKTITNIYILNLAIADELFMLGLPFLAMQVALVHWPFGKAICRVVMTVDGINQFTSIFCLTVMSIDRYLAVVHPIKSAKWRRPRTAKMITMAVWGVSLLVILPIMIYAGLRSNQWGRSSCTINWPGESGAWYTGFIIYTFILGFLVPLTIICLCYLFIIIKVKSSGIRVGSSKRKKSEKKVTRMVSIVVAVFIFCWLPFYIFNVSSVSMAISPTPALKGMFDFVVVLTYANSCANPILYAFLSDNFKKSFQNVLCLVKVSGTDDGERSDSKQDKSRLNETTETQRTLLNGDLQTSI
Protocol: We have investigated the molecular interaction between BSCIs and the sstr2 receptor using conventional equilibrium binding studies employing labelled BSCI ligands.
For the analysis of binding, individual reactions were set up (in triplicate for each condition), with 1x10^6 THP-1 cells in Gey's Balanced Salt Solution, 10nM [^3H]-BN83250 (at 50 Ci/mmol) and various concentrations of (S)-3(2'2'-dimethylpropionoylamino)-tetrahydropyridin-2-one (10pM to 10µM). Excess (100µM) unlabelled BN83250 was used to determine the level of non-specific binding. After 2 hours at 4°C (conditions previously shown to achieve equilibrium binding, and which prevent uptake of the radioligand that would result in an over-estimate of binding) excess label was washed away by centrifugation (3 washes with 5ml of Gey's Balanced Salt Solution) and the bound radioactivity was determined by scintillation counting of the solubilised cell pellet.

Structure (SMILES): CCCCCCCCCCC(C)(C)C(=O)N[C@H]1CCCCNC1=O [BN83250, (S)-3-(2',2'-dimethyldodecanoyl)amino-caprolactam]
- inhibition of SDF-1α induced migration of Jurkat-D3B (in words) (Jurkat-D3B cells): inhibits SDF-1α induced migration
- EC50 (Jurkat-D3B cells; Homo sapiens, 100ng/ml SDF-1α, Jurkat-D3B, read-out: ED50 (the source's name)): ~10 nM
- increase in BSCI sensitivity from ectopic expression of sstr2 (Jurkat-D3B cells; Jurkat-D3B versus parental Jurkat T cells): more than 100 fold
- Kd (sstr2): ~80 nM

Structure (SMILES): CC(C)(C)C(=O)N[C@H]1CCCNC1=O [Valerolactam, (S)-3-(2'2'-dimethylpropionoylamino)-tetrahydropyridin-2-one]
- inhibition of SDF-1α induced migration of Jurkat-D3B (in words) (Jurkat-D3B cells): sensitive to inhibition
- inhibition of BN83250 binding (sstr2; 1nM and above): 80-90%
- Hill Slope (sstr2; competition with [3H]-BN83250): approximately -1.0
- EC50 (sstr2; read-out: ED50 for competition with [3H]-BN83250 binding at sstr2, 10nM [3H]-BN83250): ~0.05 nM

From EP2401611B1, “IMPROVED METHODS FOR IDENTIFICATION” (Cambridge Enterprise Limited, priority 2009, dated 2010)
